The record followed here is ChEMBL document CHEMBL5113469, “Synthesis and biological evaluation of a tumor-selective degrader of PARP1” (Bioorg Med Chem, 2022).

In general, pIC50 refers to −log10 of the IC50, conventionally taken in molar units. Broadly, the DC50 is the concentration at which degradation of the target reaches its halfway point.

pIC50: −log10 of the molar value. Calls of active or inactive are those of the source. The calls are words filed in the database; no cut-off is given here.

For assay [1], the system named is MDA-MB-231. In words: Antiproliferative activity against human MDA-MB-231 cells assessed as cell growth inhibition incubated for 5 days by MTT assay. In kind it is functional, cell-based. The conditions noted are these: MDA-MB-231, 120 h.
In assay [2] the test system is MDA-MB-436. The assay can be described thus: Antiproliferative activity against human MDA-MB-436 cells assessed as cell growth inhibition incubated for 5 days by MTT assay. The assay is classed as functional, cell-based. To be noted: MDA-MB-436, 120 h. A general note: Formazan colour is commonly taken as a measure of viable cells.
Assay [3] deals with MDA-MB-468. The assay can be described thus: Antiproliferative activity against human MDA-MB-468 cells assessed as cell growth inhibition incubated for 5 days by MTT assay. In kind it is functional, cell-based. The conditions noted are these: MDA-MB-468, 120 h.
Assay [4] concerns CAPAN-1. The assay can be described thus: Antiproliferative activity against human CAPAN-1 cells assessed as cell growth inhibition incubated for 5 days by MTT assay. In kind it is functional, cell-based. The conditions noted are these: CAPAN-1, 120 h.
Assay [5] has as its system MDA-MB-231. The assay can be described thus: Induction of cell cycle arrest in human MDA-MB-231 cells assessed as accumulation at G2/M phase at 2.5 uM incubated for 24 hrs by propidium iodide staining based flow cytometry analysis (reference value: 27.14 %). The assay is classed as functional.
Assay [6] has as its system MDA-MB-231. The assay can be described thus: Induction of cell cycle arrest in human MDA-MB-231 cells assessed as accumulation at G2/M phase at 1.25 uM incubated for 24 hrs by propidium iodide staining based flow cytometry analysis (reference value: 27.14 %). The assay is classed as functional. A general note: A flow cytometer gives signals particle by particle.
For assay [7], the system named is MDA-MB-231. In words: Induction of cell cycle arrest in human MDA-MB-231 cells assessed as accumulation at G2/M phase at 0.312 uM incubated for 24 hrs by propidium iodide staining based flow cytometry analysis (reference value: 27.14 %). In kind it is functional.
The subject of assay [8] is MDA-MB-231. In words: Induction of cell cycle arrest in human MDA-MB-231 cells assessed as accumulation at S phase at 1.25 uM incubated for 24 hrs by propidium iodide staining based flow cytometry analysis (reference value: 37.88 %). The assay is classed as functional.
Assay [9] relates to MDA-MB-231. In words: Induction of cell cycle arrest in human MDA-MB-231 cells assessed as accumulation at S phase at 0.625 uM incubated for 24 hrs by propidium iodide staining based flow cytometry analysis (reference value: 37.88 %). The assay is classed as functional.
Assay [10] relates to MDA-MB-231. In words: Induction of cell cycle arrest in human MDA-MB-231 cells assessed as accumulation at G0/G1 phase at 2.5 uM incubated for 24 hrs by propidium iodide staining based flow cytometry analysis (reference value: 32.62 %). In kind it is functional.
In assay [11] the test system is MDA-MB-231. In words: Induction of cell cycle arrest in human MDA-MB-231 cells assessed as accumulation at G2/M phase at 5 uM incubated for 24 hrs by propidium iodide staining based flow cytometry analysis (reference value: 27.14 %). The assay is classed as functional.
Assay [12] relates to MDA-MB-231. The assay can be described thus: Induction of cell cycle arrest in human MDA-MB-231 cells assessed as accumulation at G2/M phase at 0.625 uM incubated for 24 hrs by propidium iodide staining based flow cytometry analysis (reference value: 27.14 %). The assay is classed as functional.
Assay [13] deals with MDA-MB-231. In words: Induction of cell cycle arrest in human MDA-MB-231 cells assessed as accumulation at S phase at 5 uM incubated for 24 hrs by propidium iodide staining based flow cytometry analysis (reference value: 37.88 %). In kind it is functional.
The subject of assay [14] is MDA-MB-231. In words: Induction of cell cycle arrest in human MDA-MB-231 cells assessed as accumulation at G0/G1 phase at 0.312 uM incubated for 24 hrs by propidium iodide staining based flow cytometry analysis (reference value: 32.62 %). The assay is classed as functional.
Assay [15] relates to MDA-MB-231. The assay can be described thus: Induction of cell cycle arrest in human MDA-MB-231 cells assessed as accumulation at G0/G1 phase at 1.25 uM incubated for 24 hrs by propidium iodide staining based flow cytometry analysis (reference value: 32.62 %). In kind it is functional.
In assay [16] the test system is MDA-MB-231. In words: Induction of cell cycle arrest in human MDA-MB-231 cells assessed as accumulation at G0/G1 phase at 0.625 uM incubated for 24 hrs by propidium iodide staining based flow cytometry analysis (reference value: 32.62 %). The assay is classed as functional.
The subject of assay [17] is MDA-MB-231. The assay can be described thus: Induction of cell cycle arrest in human MDA-MB-231 cells assessed as accumulation at S phase at 0.312 uM incubated for 24 hrs by propidium iodide staining based flow cytometry analysis (reference value: 37.88 %). The assay is classed as functional.
Assay [18] concerns MDA-MB-231. In words: Induction of cell cycle arrest in human MDA-MB-231 cells assessed as accumulation at G0/G1 phase at 5 uM incubated for 24 hrs by propidium iodide staining based flow cytometry analysis (reference value: 32.62 %). The assay is classed as functional.
The test system of assay [19] is MDA-MB-231. The assay can be described thus: Induction of cell cycle arrest in human MDA-MB-231 cells assessed as accumulation at S phase at 2.5 uM incubated for 24 hrs by propidium iodide staining based flow cytometry analysis (reference value: 37.88 %). The assay is classed as functional.
For assay [20], the target named is T1, Protein cereblon/Poly [ADP-ribose] polymerase 1 (Homo sapiens, UniProt P09874+Q96SW2). In words: PROTAC activity at CRBN/PARP1 in human L02 cells assessed as induction of PARP1 degradation incubated for 24 hrs by western blot analysis. The assay is classed as cell-based. Background: A western blot detects proteins with antibodies after separation by electrophoresis.
Target sequence in this assay (P09874 whole entry): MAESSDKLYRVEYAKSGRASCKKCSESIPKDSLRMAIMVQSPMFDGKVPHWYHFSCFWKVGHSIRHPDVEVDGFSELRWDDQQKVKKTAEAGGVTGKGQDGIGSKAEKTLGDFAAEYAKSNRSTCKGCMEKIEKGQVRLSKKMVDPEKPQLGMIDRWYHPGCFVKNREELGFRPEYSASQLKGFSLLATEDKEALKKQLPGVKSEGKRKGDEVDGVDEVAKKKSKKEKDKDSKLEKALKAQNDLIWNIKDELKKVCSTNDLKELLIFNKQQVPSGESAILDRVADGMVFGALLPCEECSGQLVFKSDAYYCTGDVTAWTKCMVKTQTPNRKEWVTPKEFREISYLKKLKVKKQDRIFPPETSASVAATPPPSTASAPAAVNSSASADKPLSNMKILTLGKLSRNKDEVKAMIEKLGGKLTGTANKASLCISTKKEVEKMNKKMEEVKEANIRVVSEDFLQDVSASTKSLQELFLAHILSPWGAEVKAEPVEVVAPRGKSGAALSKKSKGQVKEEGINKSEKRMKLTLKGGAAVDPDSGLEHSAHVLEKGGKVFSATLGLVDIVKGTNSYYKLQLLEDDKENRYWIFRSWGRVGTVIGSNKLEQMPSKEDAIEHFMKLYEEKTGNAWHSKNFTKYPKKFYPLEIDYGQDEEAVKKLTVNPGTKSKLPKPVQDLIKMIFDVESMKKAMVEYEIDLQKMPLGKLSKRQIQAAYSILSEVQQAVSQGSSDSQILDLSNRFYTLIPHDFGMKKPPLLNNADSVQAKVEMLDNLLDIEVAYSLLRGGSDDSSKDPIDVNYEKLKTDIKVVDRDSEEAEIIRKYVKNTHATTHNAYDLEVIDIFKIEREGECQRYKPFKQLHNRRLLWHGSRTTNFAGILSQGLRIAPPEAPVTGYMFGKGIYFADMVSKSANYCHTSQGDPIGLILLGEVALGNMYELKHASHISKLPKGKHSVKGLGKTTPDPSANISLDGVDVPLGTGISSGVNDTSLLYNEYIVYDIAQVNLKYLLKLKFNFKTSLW
Target sequence in this assay (Q96SW2 whole entry): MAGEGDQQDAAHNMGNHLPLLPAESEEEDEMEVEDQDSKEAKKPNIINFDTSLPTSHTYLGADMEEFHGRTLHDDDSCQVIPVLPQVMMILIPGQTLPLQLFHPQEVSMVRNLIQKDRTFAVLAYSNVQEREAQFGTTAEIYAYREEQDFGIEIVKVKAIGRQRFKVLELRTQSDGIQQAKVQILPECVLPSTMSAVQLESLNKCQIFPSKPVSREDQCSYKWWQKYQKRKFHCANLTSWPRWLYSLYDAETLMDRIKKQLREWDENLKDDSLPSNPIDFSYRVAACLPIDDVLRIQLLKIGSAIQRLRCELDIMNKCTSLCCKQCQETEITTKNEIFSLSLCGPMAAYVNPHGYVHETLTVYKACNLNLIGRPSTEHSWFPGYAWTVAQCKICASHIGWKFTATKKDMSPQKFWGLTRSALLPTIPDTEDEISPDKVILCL

Assay [21] addresses T1, Protein cereblon/Poly [ADP-ribose] polymerase 1. In words: PROTAC activity at CRBN/PARP1 in human MDA-MB-231 cells assessed as induction of PARP1 degradation at 1 uM incubated for 24 hrs by western blot analysis. The assay is classed as cell-based.
Target sequence in this assay (P09874 2-1014 limits assumed): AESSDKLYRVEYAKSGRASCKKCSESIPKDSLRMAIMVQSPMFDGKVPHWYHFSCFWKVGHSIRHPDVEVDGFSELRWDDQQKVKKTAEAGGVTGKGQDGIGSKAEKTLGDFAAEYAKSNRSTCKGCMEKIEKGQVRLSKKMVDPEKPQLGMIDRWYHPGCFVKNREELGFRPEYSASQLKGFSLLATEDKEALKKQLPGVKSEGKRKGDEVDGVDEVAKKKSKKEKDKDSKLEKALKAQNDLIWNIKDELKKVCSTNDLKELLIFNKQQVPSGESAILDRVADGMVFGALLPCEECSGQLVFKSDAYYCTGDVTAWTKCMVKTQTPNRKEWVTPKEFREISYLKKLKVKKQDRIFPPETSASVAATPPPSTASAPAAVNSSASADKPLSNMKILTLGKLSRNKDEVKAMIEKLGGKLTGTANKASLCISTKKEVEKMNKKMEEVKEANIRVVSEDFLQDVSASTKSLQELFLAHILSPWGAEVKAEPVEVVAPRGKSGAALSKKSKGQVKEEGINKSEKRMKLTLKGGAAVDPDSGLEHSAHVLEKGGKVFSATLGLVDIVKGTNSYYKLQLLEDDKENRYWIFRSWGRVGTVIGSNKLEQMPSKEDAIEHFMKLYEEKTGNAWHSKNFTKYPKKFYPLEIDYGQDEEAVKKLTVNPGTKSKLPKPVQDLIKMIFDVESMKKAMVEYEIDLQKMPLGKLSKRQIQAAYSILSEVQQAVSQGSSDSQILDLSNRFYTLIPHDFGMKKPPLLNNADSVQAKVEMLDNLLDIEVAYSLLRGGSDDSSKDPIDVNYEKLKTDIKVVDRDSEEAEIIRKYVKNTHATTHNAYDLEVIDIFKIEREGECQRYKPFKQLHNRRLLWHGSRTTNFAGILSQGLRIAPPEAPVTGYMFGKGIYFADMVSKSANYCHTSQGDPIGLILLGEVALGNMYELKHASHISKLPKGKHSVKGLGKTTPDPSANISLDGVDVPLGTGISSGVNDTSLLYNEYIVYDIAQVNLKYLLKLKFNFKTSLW
Target sequence in this assay (Q96SW2 whole entry partner): as the sequence (Q96SW2 whole entry) above

In the case of `O=C1CCC(N2C(=O)c3cccc(NC(=O)CNCCCC(=O)N4CCN(C(=O)c5cc(Cc6n[nH]c(=O)c7ccccc67)ccc5F)CC4)c3C2=O)C(=O)N1` (stereo not given), the pIC50 in assay [1] was less than 4.70; in assay [2], 5.17; in [3] it was less than 4.70; in [4], 5.06.
`O=C(c1cc(Cc2n[nH]c(=O)c3ccccc23)ccc1F)N1CCN(C(=O)C2CC2)CC1` [OLAPARIB]: the Activity in [5] was 37.91%; in assay [6], 34.71%; in [7], 26.17%; in assay [8], 33.8%; in assay [9], 33.33%; in [10] it was 28.07%. Besides, the Activity in [11] was 39.58%; in [12], 31.86%; in assay [13], 37.59%; in [14] it was 35.88%; in assay [15] it was 29.71%; in [16] it was 33.68%. In addition, the Activity in assay [17] is recorded as 46.21%; in [18], 23.6%; in [19], 38.31%. The pIC50 in [2] was 7.70; in assay [3], 5.38; in assay [4], 7.28.
Turning to `O=C1CCC(N2C(=O)c3cccc(NC(=O)CNCCCCC(=O)N4CCN(C(=O)c5cc(Cc6n[nH]c(=O)c7ccccc67)ccc5F)CC4)c3C2=O)C(=O)N1` (stereo not given), the pIC50 was less than 4.70 in assay [1], 5.24 in [2], less than 4.70 in [3] and 5.19 in [4].
`O=C(CCCCCCCCCCC(=O)N1CCN(C(=O)c2cc(Cc3n[nH]c(=O)c4ccccc34)ccc2F)CC1)NCCNc1cccc2c1C(=O)N(C1CCC(=O)NC1=O)C2=O` (stereo not given): the DC50 in assay [20] stood at 0.00289 µM.
As for `O=C1CCC(N2C(=O)c3cccc(NC(=O)CNCCCCCCCCCCCC(=O)N4CCN(C(=O)c5cc(Cc6n[nH]c(=O)c7ccccc67)ccc5F)CC4)c3C2=O)C(=O)N1` (stereo not given), the negative-log IC50 (pIC50) in assay [1] is 5.38; in assay [2] it was 7.47; in [3], 5.51; in assay [4], 7.19.
Consider `O=C1CCC(N2C(=O)c3cccc(NC(=O)CNCCCCCCCCCC(=O)N4CCN(C(=O)c5cc(Cc6n[nH]c(=O)c7ccccc67)ccc5F)CC4)c3C2=O)C(=O)N1` (stereo not given), for which the pIC50 was 5.27 in assay [1], 6.89 in [2], 5.36 in [3] and 6.66 in [4]. Besides, the result in assay [21] was Active.
Take `O=C1CCC(N2C(=O)c3cccc(NC(=O)CNCC(=O)N4CCN(C(=O)c5cc(Cc6n[nH]c(=O)c7ccccc67)ccc5F)CC4)c3C2=O)C(=O)N1` (stereo not given): the negative logarithm of the IC50 (pIC50) in [1] is less than 4.70; in assay [2], less than 5.00; in [3] it was less than 4.70; in assay [4], less than 5.00.
